Measured values published in the NIST ThermoML archive (doi:10.1021/je800012v).

Details: Liquid

CCCCCC [hexane]
mass density [kg/m3]
Details	100 kPa	2500 kPa	5000 kPa	10000 kPa	15000 kPa	20000 kPa	25000 kPa	30000 kPa	35000 kPa
283.15 K	668.07	670.36	672.69	677.06	681.19	685.08	688.82	692.35	695.65
293.15 K	659.18	661.67	664.17	668.87	673.27	677.4	681.33	685.07	688.63
298.15 K	654.61	657.21	659.81	664.66	669.24	673.51	677.56	681.4	685.02
303.15 K	649.97	652.7	655.36	660.53	665.23	669.63	673.81	677.77	681.45
313.15 K	640.82	643.76	646.69	652.13	657.16	661.86	666.28	670.44	674.41
323.15 K	631.41	634.61	637.8	643.69	649.12	654.14	658.84	663.23	667.4
333.15 K	621.8	625.32	628.77	635.13	640.94	646.27	651.23	655.89	660.3
